In US20250353864A1, “INDAZOLE CONTAINING MACROCYCLES AND THEIR USE” (BLOSSOMHILL THERAPEUTICS, INC., priority 2022, published 2025):
pIC50: −log10 of the molar value.

Columns and labels:
Format in all cases: biochemical
[1] = target: EGFR WT (Homo sapiens (Human), UniProt P00533); assay: HotSpot radiometric kinase assay (Reaction Biology), EGFR WT; conditions: 10 μM ATP
Procedure, shortened: (§1)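 Compounds were preincubated ~20 min with kinase/substrate in pH 7.5 Hepes buffer (MgCl2, EGTA, Brij35, BSA, Na3VO4, DTT, 1% DMSO), then ATP plus 33P-ATP was added to 10 μM final. After 120 min at room temperature, reactions were spotted on P81 filters and washed; IC50 values came from curve fits.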

[2] = target: CLK3 (Homo sapiens (Human), UniProt P49761); assay: Inhibition of CLK3 kinase activity evaluated at Nanosyn (ADP-Glo); conditions: ADP-Glo luminescence
Procedure, shortened: (§2)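 ADP-Glo luminescence (40 min depletion, 10 min detection) quantifies ADP from ATP-initiated phosphorylation of substrate by each CLK isoform in HEPES pH 7.5 buffer, 1% DMSO, assay-specific incubation. %-inhibition calculated against uninhibited and enzyme-free controls.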

[3] = target: EGFR Δ746-750 mutant (Homo sapiens (Human), UniProt P00533, DEL746-750); assay: HotSpot radiometric kinase assay, EGFR Δ746-750 mutant; conditions: 10 μM ATP
Procedure, shortened: as §1

[4] = target: CLK2 (Homo sapiens (Human), UniProt P49760); assay: Inhibition of CLK2 kinase activity evaluated at Nanosyn (ADP-Glo); conditions: ADP-Glo luminescence
Procedure, shortened: as §2

[5] = target: EGFR Δ746-750/C797S mutant (Homo sapiens (Human), UniProt P00533, C797S/DEL746-750); assay: HotSpot radiometric kinase assay, EGFR Δ746-750/C797S mutant; conditions: 10 μM ATP
Procedure, shortened: as §1

[6] = target: CLK4 (Homo sapiens (Human), UniProt Q9HAZ1); assay: Inhibition of CLK4 kinase activity evaluated at Nanosyn (ADP-Glo); conditions: ADP-Glo luminescence
Procedure, shortened: as §2

[7] = target: EGFR L858R/T790M mutant (Homo sapiens (Human), UniProt P00533, L858R/T790M); assay: HotSpot radiometric kinase assay, EGFR L858R/T790M mutant; conditions: 10 μM ATP
Procedure, shortened: as §1

[8] = target: EGFR L858R mutant (Homo sapiens (Human), UniProt P00533, L858R); assay: HotSpot radiometric kinase assay, EGFR L858R mutant; conditions: 10 μM ATP
Procedure, shortened: as §1

[9] = target: EGFR L858R/T790M/C797S mutant (Homo sapiens (Human), UniProt P00533, C797S/L858R/T790M); assay: HotSpot radiometric kinase assay, EGFR L858R/T790M/C797S mutant; conditions: 10 μM ATP
Procedure, shortened: as §1

[10] = target: EGFR (D770_N771insNPG) (Homo sapiens (Human), UniProt P00533, INS770NPG); assay: HotSpot radiometric kinase assay, EGFR (D770_N771insNPG); conditions: 10 μM ATP, read-out: EGFR (Δ770_N771insNPG) IC50
Procedure, shortened: as §1

[11] = target: CLK1 (Homo sapiens (Human), UniProt P49759); assay: Inhibition of CLK1 kinase activity evaluated at Nanosyn (ADP-Glo); conditions: ADP-Glo luminescence
Procedure, shortened: as §2

Chain of EGFR (D770_N771insNPG) (P00533 other isoform, or with tags, fused parts or gaps del 1-668/ins NPG behind 770 limits assumed): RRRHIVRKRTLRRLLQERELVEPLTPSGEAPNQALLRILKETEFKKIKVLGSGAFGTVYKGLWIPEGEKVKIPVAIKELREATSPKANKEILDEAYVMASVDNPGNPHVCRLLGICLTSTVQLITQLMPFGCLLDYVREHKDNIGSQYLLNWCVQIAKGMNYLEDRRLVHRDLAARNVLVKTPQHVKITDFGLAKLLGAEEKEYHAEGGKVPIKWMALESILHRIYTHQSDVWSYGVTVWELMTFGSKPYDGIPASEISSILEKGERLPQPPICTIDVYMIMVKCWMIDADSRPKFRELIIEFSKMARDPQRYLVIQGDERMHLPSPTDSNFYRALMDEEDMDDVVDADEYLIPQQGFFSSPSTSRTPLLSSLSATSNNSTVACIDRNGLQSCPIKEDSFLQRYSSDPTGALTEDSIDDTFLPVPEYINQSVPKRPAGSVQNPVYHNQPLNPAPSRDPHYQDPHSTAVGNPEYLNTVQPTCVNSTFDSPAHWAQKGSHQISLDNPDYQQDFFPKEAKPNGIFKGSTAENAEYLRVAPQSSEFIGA
Chain of EGFR L858R/T790M/C797S mutant (P00533 25-1210 T790M/C797S/L858R): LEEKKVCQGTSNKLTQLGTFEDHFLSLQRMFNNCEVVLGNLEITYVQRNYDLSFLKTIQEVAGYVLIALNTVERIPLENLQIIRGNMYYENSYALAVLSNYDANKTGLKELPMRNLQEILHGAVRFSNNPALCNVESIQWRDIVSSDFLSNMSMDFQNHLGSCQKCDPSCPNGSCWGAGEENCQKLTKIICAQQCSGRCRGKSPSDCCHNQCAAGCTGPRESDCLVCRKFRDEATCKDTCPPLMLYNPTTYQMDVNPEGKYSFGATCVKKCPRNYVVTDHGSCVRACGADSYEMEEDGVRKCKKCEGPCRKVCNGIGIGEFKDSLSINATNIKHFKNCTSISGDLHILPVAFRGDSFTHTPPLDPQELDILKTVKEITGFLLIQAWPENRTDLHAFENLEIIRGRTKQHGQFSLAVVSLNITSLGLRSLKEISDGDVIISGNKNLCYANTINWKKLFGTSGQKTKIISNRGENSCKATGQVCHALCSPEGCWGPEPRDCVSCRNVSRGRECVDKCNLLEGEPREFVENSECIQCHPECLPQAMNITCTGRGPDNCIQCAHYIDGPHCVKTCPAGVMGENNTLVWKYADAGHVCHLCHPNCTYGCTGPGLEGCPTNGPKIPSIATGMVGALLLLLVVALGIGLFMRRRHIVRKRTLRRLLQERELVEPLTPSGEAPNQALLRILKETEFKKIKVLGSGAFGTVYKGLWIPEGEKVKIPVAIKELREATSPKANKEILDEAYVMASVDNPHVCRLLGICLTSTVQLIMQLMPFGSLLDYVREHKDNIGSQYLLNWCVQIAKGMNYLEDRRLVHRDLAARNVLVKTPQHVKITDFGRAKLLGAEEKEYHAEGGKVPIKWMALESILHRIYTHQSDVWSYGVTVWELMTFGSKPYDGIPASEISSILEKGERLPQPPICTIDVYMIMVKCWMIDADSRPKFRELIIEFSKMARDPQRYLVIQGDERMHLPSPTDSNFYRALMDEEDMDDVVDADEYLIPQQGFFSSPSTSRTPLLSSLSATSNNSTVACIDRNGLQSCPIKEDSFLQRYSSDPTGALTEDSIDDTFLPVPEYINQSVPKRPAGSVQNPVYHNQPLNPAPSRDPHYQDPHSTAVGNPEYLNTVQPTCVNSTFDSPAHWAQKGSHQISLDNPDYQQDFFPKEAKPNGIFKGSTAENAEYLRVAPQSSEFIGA
Chain of EGFR L858R mutant (P00533 25-1210 L858R): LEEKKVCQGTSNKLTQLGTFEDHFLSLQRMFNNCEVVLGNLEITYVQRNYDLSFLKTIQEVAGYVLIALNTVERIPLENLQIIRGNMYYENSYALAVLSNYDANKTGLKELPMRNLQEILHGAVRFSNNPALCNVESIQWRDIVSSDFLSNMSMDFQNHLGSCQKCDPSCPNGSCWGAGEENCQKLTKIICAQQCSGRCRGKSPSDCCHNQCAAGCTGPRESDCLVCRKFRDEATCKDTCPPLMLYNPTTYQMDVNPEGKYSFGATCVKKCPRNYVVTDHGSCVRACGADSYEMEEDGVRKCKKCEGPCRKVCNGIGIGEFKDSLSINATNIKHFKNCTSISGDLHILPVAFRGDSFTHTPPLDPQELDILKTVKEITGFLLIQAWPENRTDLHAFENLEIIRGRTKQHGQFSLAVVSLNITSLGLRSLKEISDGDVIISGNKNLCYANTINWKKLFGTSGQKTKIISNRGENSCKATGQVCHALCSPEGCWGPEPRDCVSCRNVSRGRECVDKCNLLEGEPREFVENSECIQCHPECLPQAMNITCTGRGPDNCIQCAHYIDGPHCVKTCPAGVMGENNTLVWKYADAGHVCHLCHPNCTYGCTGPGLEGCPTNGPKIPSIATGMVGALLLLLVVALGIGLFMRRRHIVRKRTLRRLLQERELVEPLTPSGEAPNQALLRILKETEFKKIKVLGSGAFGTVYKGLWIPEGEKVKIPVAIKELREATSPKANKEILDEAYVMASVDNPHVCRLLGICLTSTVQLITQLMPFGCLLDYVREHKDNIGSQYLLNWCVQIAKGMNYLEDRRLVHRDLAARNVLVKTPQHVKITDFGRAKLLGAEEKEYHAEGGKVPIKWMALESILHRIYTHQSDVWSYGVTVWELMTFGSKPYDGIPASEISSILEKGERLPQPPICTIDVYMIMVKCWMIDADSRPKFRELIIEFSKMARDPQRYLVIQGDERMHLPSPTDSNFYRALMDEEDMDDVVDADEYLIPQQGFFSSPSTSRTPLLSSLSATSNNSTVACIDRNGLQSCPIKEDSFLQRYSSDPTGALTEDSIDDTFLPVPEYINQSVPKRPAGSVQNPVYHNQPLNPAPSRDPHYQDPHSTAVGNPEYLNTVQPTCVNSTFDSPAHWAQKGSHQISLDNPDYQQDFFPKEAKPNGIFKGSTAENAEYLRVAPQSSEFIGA
Chain of EGFR WT (P00533 25-1210): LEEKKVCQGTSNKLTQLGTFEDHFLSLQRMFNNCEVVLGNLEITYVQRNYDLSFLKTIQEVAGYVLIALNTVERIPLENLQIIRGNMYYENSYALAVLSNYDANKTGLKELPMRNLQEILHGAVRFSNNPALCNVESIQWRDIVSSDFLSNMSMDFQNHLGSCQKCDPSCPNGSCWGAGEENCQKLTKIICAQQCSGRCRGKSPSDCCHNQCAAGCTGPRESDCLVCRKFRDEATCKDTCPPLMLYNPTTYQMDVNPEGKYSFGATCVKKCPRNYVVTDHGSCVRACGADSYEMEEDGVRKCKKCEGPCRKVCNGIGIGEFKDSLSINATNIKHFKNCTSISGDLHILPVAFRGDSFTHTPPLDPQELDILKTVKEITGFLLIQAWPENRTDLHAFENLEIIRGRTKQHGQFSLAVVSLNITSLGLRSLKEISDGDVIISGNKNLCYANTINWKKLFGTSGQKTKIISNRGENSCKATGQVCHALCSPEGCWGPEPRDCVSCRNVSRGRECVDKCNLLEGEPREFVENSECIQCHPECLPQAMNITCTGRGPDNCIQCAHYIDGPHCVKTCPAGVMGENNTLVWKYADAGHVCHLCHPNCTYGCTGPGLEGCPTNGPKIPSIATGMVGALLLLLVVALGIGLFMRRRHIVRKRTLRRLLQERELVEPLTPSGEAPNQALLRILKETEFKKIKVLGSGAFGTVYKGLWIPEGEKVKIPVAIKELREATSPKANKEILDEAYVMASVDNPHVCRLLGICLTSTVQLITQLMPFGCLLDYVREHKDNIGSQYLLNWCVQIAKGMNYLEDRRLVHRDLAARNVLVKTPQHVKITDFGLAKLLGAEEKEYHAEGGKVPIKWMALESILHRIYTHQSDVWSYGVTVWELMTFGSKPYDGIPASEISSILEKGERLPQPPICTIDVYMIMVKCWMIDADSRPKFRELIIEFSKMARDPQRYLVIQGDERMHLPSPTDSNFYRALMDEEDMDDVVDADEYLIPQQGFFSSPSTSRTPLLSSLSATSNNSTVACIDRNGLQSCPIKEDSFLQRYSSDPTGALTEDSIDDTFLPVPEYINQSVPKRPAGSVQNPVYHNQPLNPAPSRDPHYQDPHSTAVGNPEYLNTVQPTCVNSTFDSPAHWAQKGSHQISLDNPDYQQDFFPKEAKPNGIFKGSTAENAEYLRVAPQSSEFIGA
Chain of EGFR Δ746-750 mutant (P00533 other isoform, or with tags, fused parts or gaps del 1-668/del 746-750 limits assumed): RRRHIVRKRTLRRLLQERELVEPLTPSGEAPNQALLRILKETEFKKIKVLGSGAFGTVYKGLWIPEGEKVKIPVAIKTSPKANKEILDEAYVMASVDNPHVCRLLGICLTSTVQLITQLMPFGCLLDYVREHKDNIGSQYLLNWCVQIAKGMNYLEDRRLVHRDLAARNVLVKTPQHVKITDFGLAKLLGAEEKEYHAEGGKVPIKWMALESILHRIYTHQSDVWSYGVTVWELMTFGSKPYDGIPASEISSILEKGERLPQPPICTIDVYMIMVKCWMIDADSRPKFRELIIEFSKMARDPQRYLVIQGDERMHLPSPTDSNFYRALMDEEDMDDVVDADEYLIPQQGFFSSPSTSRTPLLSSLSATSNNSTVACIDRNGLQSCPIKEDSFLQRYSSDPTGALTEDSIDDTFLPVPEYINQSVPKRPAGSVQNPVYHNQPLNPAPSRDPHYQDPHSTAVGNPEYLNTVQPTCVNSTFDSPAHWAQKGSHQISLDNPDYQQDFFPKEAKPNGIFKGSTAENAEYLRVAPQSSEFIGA

| pIC50 [1] | pIC50 [2] | pIC50 [3] | pIC50 [4] | pIC50 [5] | pIC50 [6] | pIC50 [7] | pIC50 [8] | pIC50 [9] | pIC50 [10] | pIC50 [11] | SMILES |
| --- | --- | --- | --- | --- | --- | --- | --- | --- | --- | --- | --- |
| 6.53 | 9.00 | 7.68 | 8.21 | 8.29 | 8.29 | 9.38 | 7.08 | 9.70 | 6.37 | 8.24 | CC(C)Oc1nn(CCO)c2c1/C=C/c1n[nH]c3ccc(cc13)-c1cnn(C)c1OC[C@H](C)N(C1CC1)C2 [Example 213, 2-{(11S,17E)-12-cyclopropyl-8,11-dimethyl-16-[(propan-2-yl)oxy]-2,8,10,11,12,13-hexahydro-14H-3,5-ethenotripyrazolo[3,4-f:3′,4′-j:4″,3″- n][1,4]oxazacyclopentadecin-14-yl}ethan-1-ol] |
| 5.84 | 9.00 | 6.40 | 8.05 | 6.32 | 8.37 | 7.64 | 6.29 | 7.56 | 6.24 | 8.56 | CC(C)Oc1nn(CCO)c2c1/C=C/c1n[nH]c3ccc(cc13)-c1cnn(C)c1O[C@@H](C)C(=O)N(C)C2 [Example 220, (10S,17E)-14-(2-hydroxyethyl)-8,10,12-trimethyl-16-[(propan-2-yl)oxy]-2,12,13,14-tetrahydro-8H-3,5-ethenotripyrazolo[3,4-f:3′,4′-j:4″,3″- n][1,4]oxazacyclopentadecin-11(10H)-one] |
| 7.56 | 6.51 | 8.75 | 8.50 | 8.66 | 8.61 | 9.51 | 8.32 | 9.74 | 7.24 | 8.64 | CCOc1nn(CC(C)(C)O)c2c1/C=C/c1n[nH]c3ccc(cc13)-c1cnn(C)c1O[C@@H](C)CN(CC)C2 [Example 222, 1-[(10S,17E)-16-ethoxy-12-ethyl-8,10-dimethyl-2,8,10,11,12,13-hexahydro-14H-3,5-ethenotripyrazolo[3,4-f:3′,4′-j:4″,3″-n][1,4]oxazacyclopentadecin-14-yl]-2-methylpropan-2-ol] |
| 7.37 | 7.52 | 8.39 | 9.55 | 8.51 | 8.68 | 9.21 | 8.15 | 9.47 | 6.99 | 9.07 | CC(C)Oc1nn(CCO)c2c1/C=C/c1n[nH]c3ccc(cc13)-c1cnn(C)c1O[C@@H](C)CN(C)[C@@H]2C [Example 223] |
| 7.29 | 7.11 | 8.27 | 9.31 | 8.84 | 8.72 | 9.24 | 7.91 | 9.68 | 7.18 | 8.95 | CC(C)Oc1nn(CCO)c2c1/C=C/c1n[nH]c3ccc(cc13)-c1cnn(C)c1OC(CF)CN(C)C2 (stereo not drawn) [Example 225, 2-{(17E)-10-(fluoromethyl)-8,12-dimethyl-16-[(propan-2-yl)oxy]-2,8,10,11,12,13-hexahydro-14H-3,5-ethenotripyrazolo[3,4-f:3′,4′-j:4″,3″-n][1,4]oxazacyclopentadecin-14-yl}ethan-1-ol] |
| 6.92 | 6.43 | 8.05 | 9.00 | 8.19 | 8.84 | 8.92 | 7.29 | 9.22 | 6.65 | 9.06 | CC(C)Oc1nn(CCO)c2c1/C=C/c1n[nH]c3ccc(cc13)-c1cnn(C)c1OCC(CF)N(C)C2 (stereo not drawn) [Example 226, 2-{(17E)-11-(fluoromethyl)-8,12-dimethyl-16-[(propan-2-yl)oxy]-2,8,10,11.12,13-hexahydro-14H-3,5-ethenotripyrazolo[3,4-f:3′,4′-j:4″,3″-n][1,4]oxazacyclopentadecin-14-yl}ethan-1-ol] |

The remaining lines, values behind:

| SMILES | pIC50 [1] | pIC50 [2] | pIC50 [3] | pIC50 [4] | pIC50 [5] | pIC50 [6] | pIC50 [7] | pIC50 [8] | pIC50 [9] | pIC50 [10] | pIC50 [11] |
| --- | --- | --- | --- | --- | --- | --- | --- | --- | --- | --- | --- |
| CCOc1nn(CCO)c2c1/C=C/c1n[nH]c3ccc(cc13)-c1cnn(C)c1OC[C@H](C)N(C1CC1)C2 [Example 198, 2-[(11S,17E)-12-cyclopropyl-16-ethoxy-8,11-dimethyl-2,8,10,11,12,13-hexahydro-14H-3,5-ethenotripyrazolo[3,4-f:3′,4′-j:4″,3″- n][1,4]oxazacyclopentadecin-14-yl]ethan-1-ol] | 7.43 | 6.00 | 8.23 | 8.79 | 8.71 | 8.79 | 9.05 | 7.88 | 9.59 | 7.33 | 9.12 |
| CC(C)Oc1nn(CCO)c2c1/C=C/c1n[nH]c3cc(F)c(cc13)-c1cnn(C)c1O[C@@H]1CCCN(C2)C1 [Example 199, 2-[(10R,19E)-22-fluoro-8-methyl-18-[(propan-2-yl)oxy]-2,10,11,12,13,15-hexahydro-3,5-etheno-10,14-methanotripyrazolo[3,4-h:3′,4′-l:4″,3″- p][1,6]oxazacycloheptadecin-16(8H)-yl]ethan-1-ol] | 5.89 | 7.71 | 6.83 | 8.64 | 7.37 | 8.75 | 7.19 | 7.06 | 7.36 | < 6.00 | 8.98 |
| C[C@H]1CN(C)Cc2c(c(OCC#N)nn2CCO)/C=C/c2n[nH]c3ccc(cc23)-c2cnn(C)c2O1 [Example 203, {[(10S,17E)-14-(2-hydroxyethyl)-8,10,12-trimethyl-2,10,11,12,13,14-hexahydro-8H-3,5-ethenotripyrazolo[3,4-f:3′,4′-j:4″,3″- n][1,4]oxazacyclopentadecin-16-yl]oxy}acetonitrile] | 9.64 | 6.82 | 9.96 | 9.85 | 9.64 | 8.80 | 9.77 | 9.92 | 9.11 | 9.19 | 9.14 |
| CCOc1nn(C)c2c1/C=C/c1n[nH]c3cc(F)c(cc13)-c1cnn(C)c1O[C@@H](C)CN(CC)C2 [Example 206, (10S,17E)-16-ethoxy-12-ethyl-19-fluoro-8,10,14-trimethyl-2,10,11,12,13,14-hexahydro-8H-3,5-ethenotripyrazolo[3,4-f:3′,4′-j:4″,3″-n][1,4]oxazacyclopentadecine] | 8.48 | 6.32 | 9.12 | 8.76 | 9.13 | 8.43 | 9.28 | 8.77 | 8.84 | 7.36 | 8.78 |
| C[C@H]1CN(C)Cc2c(c(OCC(F)(F)F)nn2CCO)/C=C/c2n[nH]c3cc(F)c(cc23)-c2cnn(C)c2O1 [Example 211, 2-[(10S,17E)-19-fluoro-8,10,12-trimethyl-16-(2,2,2-trifluoroethoxy)-2,8,10,11,12,13-hexahydro-14H-3,5-ethenotripyrazolo[3,4-f:3′,4′-j:4″,3″- n][1,4]oxazacyclopentadecin-14-yl]ethan-1-ol] | < 6.00 | 9.00 | < 6.00 | 6.94 | 5.54 | 6.40 | < 6.00 | 6.40 | < 6.00 | < 6.00 | 6.57 |
| CC(C)Oc1nn(CCO)c2c1/C=C/c1n[nH]c3ccc(cc13)-c1cnn(C)c1O[C@H](C)CN(C1CC1)C2 [Example 212, 2-{(10R,17E)-12-cyclopropyl-8,10-dimethyl-16-[(propan-2-yl)oxy]-2,8,10,11,12,13-hexahydro-14H-3,5-ethenotripyrazolo[3,4-f:3′,4′-j:4″,3″- n][1,4]oxazacyclopentadecin-14-yl}ethan-1-ol] | 6.81 | 6.63 | 7.77 | 8.15 | 8.41 | 8.27 | 9.24 | 7.28 | 9.38 | 6.86 | 8.28 |
